Source: patent US20250143306A1, “COMBINATION FOR IMPROVING PLANT GROWTH AND/OR YIELD, FORMULATION AND METHOD FOR INCREASING PLANT GROWTH, STRESS RESISTANCE, AND YIELDS, AND USE THEREOF” (INSTITUTE OF EXPERIMENTAL BOTANY CAS CR, V.V.I., priority 2022, published 2025)

Assays:
[1] = tested on: wheat (Triticum aestivum) cv. Balitus; assay: Root and shoot dry weight and leaf nitrogen content of hydroponically grown wheat under optimal conditions (Example 1); format: in vivo
Description: To investigate the effect of the combinations on the weight parameters, the seeds of wheat (Triticum aestivum) cv. Balitus were sown in a hydroponic growing system (Araponics, Liege, Belgium) using Hoagland's solution (control). Twenty days after sowing, plants (except for control plants) were sprayed by aqueous solution of either MTU (10 μM) or by a nitrogen utilization enhancer alone or by a combination of MTU (10 μM) with the nitrogen utilization enhancer. The plants were grown in the Czech Republic in a glasshouse at 16-25° C. under natural and artificial light during the winter period. The root dry weight (RDW), shoot dry weight (SDW) and the nitrogen content in the leaves of at least 30 plants were measured 45 days after the plants had been sown. RDW and SDW were recorded after drying the plants at 70° C. for 2 days.

[2] = tested on: wheat (Triticum aestivum) cv. Balitus; assay: Root and shoot dry weight and total chlorophyll content of wheat under drought stress conditions (Example 2); format: in vivo
Description: To investigate the effect of the combinations on the weight parameters, and the total content of chlorophyll, seeds of wheat (Triticum aestivum) cv. Balitus were sown in a hydroponic growing system (Araponics, Liege, Belgium) using Hoagland's solution (control). Twenty days after sowing plants (except for control plants) were sprayed by either MTU (10 μM) or by nitrogen utilization enhancers alone or with a combination of MTU (10 μM) and nitrogen utilization enhancers. The plants were grown in a glasshouse at 20-28° C. under a combination of natural and artificial light. Since the treatment (20 days after sowing), the plants received low water doses. […] The root dry weight (RDW), shoot dry weight (SDW), and total chlorophyll content (TCC) of at least 25 plants were measured at the end of the experiment—45 days after the plants had been sown. RDW and SDW were recorded after drying the plants at 70° C. for 2 days. The chlorophyll content of each plant was measured by SPAD meter reading at the end of the experiment and TCC was calculated as SPAD value per SDW.

| Molecule | RDW % of control ([1]; concentration 100 mg/L) | RDW (root dry weight) ([1]; concentration 100 mg/L) | SDW % of control ([1]; concentration 100 mg/L) | SDW (shoot dry weight) ([1]; concentration 100 mg/L) | Nitrogen content in the leaves ([1]; concentration 250 mg/L) | RDW % of control ([1]; concentration 250 mg/L) | RDW (root dry weight) ([1]; concentration 250 mg/L) | SDW % of control ([1]; concentration 250 mg/L) | SDW (shoot dry weight) ([1]; concentration 250 mg/L) | RDW % of control ([2]; concentration 100 mg/L) | RDW (root dry weight) ([2]; concentration 100 mg/L) | SDW % of control ([2]; concentration 100 mg/L) | SDW (shoot dry weight) ([2]; concentration 100 mg/L) | RDW % of control ([2]; concentration 250 mg/L) | RDW (root dry weight) ([2]; concentration 250 mg/L) | SDW % of control ([2]; concentration 250 mg/L) | SDW (shoot dry weight) ([2]; concentration 250 mg/L) | also measured |
| --- | --- | --- | --- | --- | --- | --- | --- | --- | --- | --- | --- | --- | --- | --- | --- | --- | --- | --- |
| O=C(O)CCC(=O)C(=O)O [2-oxoglutarate] | +8.8% | 0.87 g | +5.3% | 1.60 g | 4.67 weight % | +13.8% | 0.91 g | +8.6% | 1.65 g | +11.9% | 0.75 g | +10.7% | 1.35 g | +16.4% | 0.78 g | +14.8% | 1.4 g | TCC % (total chlorophyll content) ([2]; concentration 100 mg/L): 107%; TCC % (total chlorophyll content) ([2]; concentration 250 mg/L): 112% |
| N[C@@H](CC(=O)O)C(=O)O [Aspartic acid, aspartic acid] |  |  |  |  | 4.53 weight % | +15.0% | 0.92 g | −1.3% | 1.50 g |  |  |  |  | +14.9% | 0.77 g | +3.3% | 1.26 g |  |
| CCCCCC(=O)OCCN(CC)CC [DA6, diethyl aminoethyl hexanoate] |  |  |  |  |  |  |  |  |  |  |  |  |  |  |  |  |  | Nitrogen content in the leaves ([1]; concentration 25 mg/L): 4.53 weight %; RDW % of control ([1]; concentration 25 mg/L): +8.8%; RDW (root dry weight) ([1]; concentration 25 mg/L): 0.87 g; SDW % of control ([1]; concentration 25 mg/L): +5.9%; SDW (shoot dry weight) ([1]; concentration 25 mg/L): 1.61 g; RDW % of control ([2]; concentration 20 mg/L): +13.4%; RDW (root dry weight) ([2]; concentration 20 mg/L): 0.76 g; SDW % of control ([2]; concentration 20 mg/L): +6.6%; SDW (shoot dry weight) ([2]; concentration 20 mg/L): 1.3 g; TCC % (total chlorophyll content) ([2]; concentration 20 mg/L): 110% |
| NCCCC(=O)O [GABA, γ-aminobutyric acid] |  |  |  |  |  |  |  |  |  |  |  |  |  |  |  |  |  | Nitrogen content in the leaves ([1]; concentration 200 mg/L): 4.82 weight %; RDW % of control ([1]; concentration 200 mg/L): +5.0%; RDW (root dry weight) ([1]; concentration 200 mg/L): 0.84 g; SDW % of control ([1]; concentration 200 mg/L): +4.6%; SDW (shoot dry weight) ([1]; concentration 200 mg/L): 1.59 g |
| N[C@@H](CCC(=O)O)C(=O)O [Glutamic acid, glutamic acid] | +6.3% | 0.85 g | +2.0% | 1.55 g | 4.56 weight % | +15.0% | 0.92 g | +3.9% | 1.58 g | +9.0% | 0.73 g | +4.1% | 1.27 g | +19.4% | 0.8 g | +3.3% | 1.26 g |  |
| C[N+](C)(C)CC(=O)[O-] [Glycine betaine, glycine betaine] |  |  |  |  |  |  |  |  |  |  |  |  |  |  |  |  |  | RDW % of control ([2]; concentration 5 g/L): +4.5%; RDW (root dry weight) ([2]; concentration 5 g/L): 0.70 g; SDW % of control ([2]; concentration 5 g/L): +7.4%; SDW (shoot dry weight) ([2]; concentration 5 g/L): 1.31 g; TCC % (total chlorophyll content) ([2]; concentration 5 g/L): 110% |
| CC(=O)N1CSCC1C(=O)O (centres unmarked) [NATCA, N-acetyl thiazolidine 4-carboxylic acid] | +12.5% | 0.9 g | +7.2% | 1.63 g |  |  |  |  |  | +11.9% | 0.75 g | +9.8% | 1.34 g |  |  |  |  | Nitrogen content in the leaves ([1]; concentration 100 mg/L): 4.77 weight % |
| O=C(O)[C@@H]1CCCN1 [Proline, proline] |  |  |  |  | 4.69 weight % | +7.5% | 0.86 g | +3.3% | 1.57 g |  |  |  |  | +7.5% | 0.72 g | +4.9% | 1.28 g |  |
| OP(O)O [[PO3]^3−, phosphite] |  |  |  |  |  |  |  |  |  |  |  |  |  |  |  |  |  | Nitrogen content in the leaves ([1]; concentration 600 mg/L): 4.81 weight %; RDW % of control ([1]; concentration 600 mg/L): +18.8%; RDW (root dry weight) ([1]; concentration 600 mg/L): 0.95 g; SDW % of control ([1]; concentration 600 mg/L): +14.5%; SDW (shoot dry weight) ([1]; concentration 600 mg/L): 1.74 g; RDW % of control ([2]; concentration 600 mg/L): +16.4%; RDW (root dry weight) ([2]; concentration 600 mg/L): 0.78 g; SDW % of control ([2]; concentration 600 mg/L): +8.2%; SDW (shoot dry weight) ([2]; concentration 600 mg/L): 1.32 g; TCC % (total chlorophyll content) ([2]; concentration 600 mg/L): 105% |
| NC(=O)CC[C@H](N)C(=O)O [glutamine] | +10.0% | 0.88 g | +5.3% | 1.60 g | 4.59 weight % | +12.5% | 0.90 g | +6.6% | 1.62 g | +10.4% | 0.74 g | +7.4% | 1.31 g | +16.4% | 0.78 g | +11.5% | 1.36 g |  |
| NCC(=O)O [glycine] | +5.0% | 0.84 g | +5.9% | 1.61 g | 4.64 weight % | +7.5% | 0.86 g | +8.6% | 1.65 g | +7.5% | 0.72 g | +5.7% | 1.29 g | +13.4% | 0.76 g | +11.5% | 1.36 g |  |
| poly-γ-(glutamic acid) [γ-PGA] |  |  |  |  | 4.74 weight % | +5.0% | 0.84 g | +6.6% | 1.62 g |  |  |  |  | +9.0% | 0.73 g | +2.5% | 1.25 g | TCC % (total chlorophyll content) ([2]; concentration 250 mg/L): 112% |
